In one assay the test system is Escherichia coli W3110. Nature of the assay: MIC assay. Type of assay: cell-based. To be noted: for MIC: E. coli.
Another assay concerns Enterobacter cloacae. The experiment in a line: MIC assay. Set-up: MIC: unit not given here. The format is cell-based.
In another assay the test system is Morganella morganii. The experiment in a line: MIC assay. The format is cell-based.
Assay [1] concerns Vibrio cholerae P4 (P27459DctxAB::KmR, SmR). Nature of the assay: MIC assay. The format is cell-based. Further details: MIC: unit not given here.
Another assay has as its system Proteus mirabilis. Nature of the assay: MIC assay. Further details: MIC: unit not given here. The format is cell-based.
For assay [2], the system named is Klebsiella pneumoniae 10031. Nature of the assay: MIC assay. Type of assay: cell-based. Further details: MIC: unit not given here.
Assay [3] concerns Salmonella typhimurium LT2. The experiment in a line: MIC assay. Type of assay: cell-based.
A further assay has as its target T1, Escherichia coli LpxC (Escherichia coli, UniProt P0A725).
T1 sequence (P0A725 1-305): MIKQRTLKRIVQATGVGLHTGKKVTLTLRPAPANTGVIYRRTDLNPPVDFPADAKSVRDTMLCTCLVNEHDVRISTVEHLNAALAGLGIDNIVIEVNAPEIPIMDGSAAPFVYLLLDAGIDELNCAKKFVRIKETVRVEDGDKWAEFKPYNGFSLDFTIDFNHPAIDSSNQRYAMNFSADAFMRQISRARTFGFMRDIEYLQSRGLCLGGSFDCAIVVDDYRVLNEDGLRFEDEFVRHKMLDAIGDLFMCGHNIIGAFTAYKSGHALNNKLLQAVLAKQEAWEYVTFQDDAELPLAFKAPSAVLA
The experiment in a line: LpxC enzymatic assay (radiolabelled substrate, slow tight-binding kinetics). Type of assay: biochemical. As for the experimental part:
The radiolabelled substrate for the LpxC enzymatic assays, [α-^32P] UDP-3-O-[(R)-3-hydroxymyristoyl]-N-acetylglucosamine, and the unlabelled carrier substrate were prepared as previously described. […] Serial twofold dilutions of each inhibitor were prepared in DMSO and added to the reaction mixture with a 10-fold dilution. The assays were initiated by addition of purified LpxC protein into the reaction mix with 1:4 dilution to the final concentration as specified.
The KM value was determined by varying substrate concentrations from 0.4 to 50 μM with 0.2 nM of LpxC. To study the slow, tight-binding inhibition, LpxC activity was assessed in the presence of varying inhibitor concentrations. […] The following time-dependent equation was used to fit the data: […]
The Ki* was determined by analysing the rate of product accumulation after formation of the stable EI* complex. […] The Morrison's quadratic equation was used to fit the fractional activity data to determine Ki^*app:
where [E]T and [I]T represent the total enzyme and inhibitor concentrations, respectively. The inhibition constant Ki* is converted from Ki^*app according to the following relationship:
For two-step slow-binding inhibition, kinetic parameters k5, k6 and Ki were extracted from curve fitting of experimental kobs values to inhibitor concentrations based on equations (5 and 6).

Assay [4] concerns Pseudomonas aeruginosa PAO1. The experiment in a line: MIC assay. The format is cell-based.
The test system of assay [5] is Acinetobacter baumannii 17978. The experiment in a line: MIC assay. The format is cell-based.
The subject of the next assay is Chlamydia trachomatis. The experiment in a line: Minimal chlamydiacidal concentration (MCC). Type of assay: cell-based. Set-up: Minimal chlamydiacidal concentration (MCC), listed in MIC column: unit not given here.
[6] abbreviates: E. coli LpxC, 20 pM enzyme, 5 μM substrate, 30 °C, Morrison fit, read-out: Ki* (inhibition constant of the stable EI* complex).
The mark [7] stands for this setting: fit of kobs vs inhibitor concentration, 30 μM substrate, 0.1 nM enzyme.

Values after ≈ are worked out from the molar mass of the structure shown. Where two headings read alike, the source gives them in different places.

Turning to `C[C@@H](O)[C@H](NC(=O)c1ccc(C#CC#Cc2ccc(N)cc2)cc1)C(=O)NO` [LPC-011], the MIC is 0.04 µg/mL (≈ 0.106 µM) in the assay with Escherichia coli W3110; 0.052 against Enterobacter cloacae; 0.039 g/mL with Morganella morganii; 0.063 in assay [1]; 0.13 with Proteus mirabilis; 0.01 in assay [2]. For the same compound, in [3], the MIC came to 0.06 µg/mL (≈ 0.159 µM).
For `CC(C)(O)[C@H](NC(=O)c1ccc(C#CC#Cc2ccc(N)cc2)cc1)C(=O)NO` [LPC-037], the Ki – broadly, a measure of affinity in units of concentration, obtained from inhibition or displacement – on Escherichia coli LpxC (setting [6]) was 0.014 ± 0.001 nM.
Same read-out and setting: the same measure for `CC(C)(N)[C@H](NC(=O)c1ccc(C#CC#Cc2ccc(N)cc2)cc1)C(=O)NO` [LPC-040]: 0.012 ± 0.001 nM.
`C[C@@](O)(C(F)F)[C@H](NC(=O)c1ccc(C#CC#Cc2ccc(N)cc2)cc1)C(=O)NO` [LPC-058]: the “Enhancement (MIC CHIR-090/MIC LPC-058)” value was 7.2 in the assay with Escherichia coli W3110 (Escherichia coli W3110); 5.0 in assay [4]; > 128 in assay [5] (Acinetobacter baumannii 17978); 12 in the assay with Enterobacter cloacae; 100 in the assay with Chlamydia trachomatis (MCC); 55 in the assay with Morganella morganii. Moreover, the “Enhancement (MIC CHIR-090/MIC LPC-058)” value came out at 31 in assay [1], 32 in the assay on Proteus mirabilis, 13 in [2] and 12 in assay [3]. Moreover, the “Enhancement (MIC LPC-011/MIC LPC-058)” value in the assay on Escherichia coli W3110 (Escherichia coli W3110) was found to be 2.2; in assay [4] it was 2.0; in assay [5] (Acinetobacter baumannii 17978), 25; with Enterobacter cloacae, 2.0; in the assay on Chlamydia trachomatis (MCC) it was 6.0; in the assay with Morganella morganii it was 2.0. Besides, the “Enhancement (MIC LPC-011/MIC LPC-058)” value in assay [1] stood at 3.9; in the assay with Proteus mirabilis it was 5.0; in assay [2] it was 3.8; in assay [3] it was 2.8. Further, the MIC was 0.167 µg/mL (≈ 0.391 µM) in assay [4]; 0.39 µg/mL (≈ 0.912 µM) in assay [5] (Acinetobacter baumannii); 0.026 in the assay on Enterobacter cloacae; 0.019 g/mL with Morganella morganii; 0.016 in assay [1]; 0.026 in the assay on Proteus mirabilis. The figures for the MIC in assay [2] and in [3] were 0.0026 and 0.021 µg/mL (≈ 0.0491 µM), respectively. Moreover, the “Minimal chlamydiacidal concentration (MCC), listed in MIC column” value with Chlamydia trachomatis turned out to be 0.08. At Escherichia coli LpxC (E. coli LpxC), the “enhancement of potency (Ki*) over CHIR-090” value is listed as 44 fold. Moreover, the “enhancement of potency (Ki*) over LPC-011” value on Escherichia coli LpxC (E. coli LpxC) is recorded as 7 fold. In addition, the Ki at Escherichia coli LpxC (setting [6]) stood at 0.0035 ± 0.0002 nM; on Escherichia coli LpxC (fit of kobs vs inhibitor concentration, 30 μM substrate, 0.1 nM enzyme, Ki* constrained, read-out: Ki (inhibition constant of the initial encounter complex EI)), 0.973 ± 0.128 nM. The “k5 (forward rate from EI to EI*)” value at Escherichia coli LpxC (setting [7]) was 0.39 ± 0.02 min⁻¹. The “k6 (reverse rate from EI* to EI)” value at Escherichia coli LpxC (setting [7]) is 0.0014 ± 0.0001 min⁻¹.
In the case of `C[C@](O)([C@H](NC(=O)c1ccc(C#CC#Cc2ccc(N)cc2)cc1)C(=O)NO)C(F)(F)F` [LPC-083], the MIC against Escherichia coli W3110 is 0.1 µg/mL (≈ 0.225 µM). For the same compound, at Escherichia coli LpxC (E. coli LpxC), the “compromised inhibitory effect (Ki*) over parent compound LPC-037” value is reported as “ninefold” and the “inhibition constant worse than LPC-011” value is “fivefold”. In addition, the Ki on Escherichia coli LpxC (setting [6]) stood at 0.125 ± 0.004 nM.

The values are drawn from paper PMC4773385, “Drug design from the cryptic inhibitor envelope” (Nature Communications, 2016).
